This test addresses T1, DNA topoisomerase 1 (Topo1) (Spodoptera exigua, UniProt G1FWE7).
T1 construct: Topo70, N-terminally truncated, residues 337–930, GST fusion expressed in E. coli BL21 (DE3)
T1 sequence (G1FWE7 337-930): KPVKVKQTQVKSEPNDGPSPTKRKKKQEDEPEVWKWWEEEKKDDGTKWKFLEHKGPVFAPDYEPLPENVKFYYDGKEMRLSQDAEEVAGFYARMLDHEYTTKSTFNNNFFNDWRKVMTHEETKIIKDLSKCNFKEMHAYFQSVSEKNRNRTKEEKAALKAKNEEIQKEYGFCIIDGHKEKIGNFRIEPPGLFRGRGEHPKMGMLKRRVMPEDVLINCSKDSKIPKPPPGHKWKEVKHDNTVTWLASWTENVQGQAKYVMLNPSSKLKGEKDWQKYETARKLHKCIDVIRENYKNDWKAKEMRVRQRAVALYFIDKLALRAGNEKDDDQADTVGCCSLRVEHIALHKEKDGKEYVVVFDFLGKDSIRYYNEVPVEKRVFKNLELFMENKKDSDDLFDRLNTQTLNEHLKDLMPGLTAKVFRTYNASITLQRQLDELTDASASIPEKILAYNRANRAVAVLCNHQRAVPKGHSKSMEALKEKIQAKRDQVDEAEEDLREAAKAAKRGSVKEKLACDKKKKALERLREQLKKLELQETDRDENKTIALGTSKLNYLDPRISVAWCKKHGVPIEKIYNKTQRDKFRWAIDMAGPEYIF
Kind of test: pBR322 DNA relaxation assay with purified recombinant Topo1, agarose gel densitometry. The class given is biochemical.

In the case of `CC[C@@]1(O)C(=O)OCc2c1cc1n(c2=O)Cc2cc3ccccc3nc2-1` [CPT, Camptothecin], the 50% effective concentration (EC50) stood at 4.42 µM.

On to `CC[C@@]1(O)C(=O)OCc2c1cc1n(c2=O)Cc2cc3cc(O)ccc3nc2-1` [HCPT, hydroxy-camptothecin], for which the EC50 stood at 15.2 µM.

For orientation: EC50 means the concentration needed to bring the measured effect to its halfway point.

The values above are taken from article PMC3579855, “Characterization of DNA Topoisomerase-1 in Spodoptera exigua for Toxicity Evaluation of Camptothecin and Hydoxy-Camptothecin” (PLoS ONE, 2013).
